From PubChem BioAssay (NCI) come the findings set out here.

Among the test systems are SNB-19 CNS; M14 melanoma; IGROV1 ovarian; SF-268 CNS; OVCAR-3 ovarian; CCRF-CEM leukemia; A498 renal; UO-31 renal.
Assay in all cases: NCI-60 cell line screen, 48 h

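Protocol summary: plate cells (96-well), add compound at 5 concentrations, incubate 48 h, interpolate endpoints linearly. TGI: total growth inhibition.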

Turning to `Cc1ccc(C)n1-n1c(Cc2ccc(Cl)cc2)n[nH]c1=O`, the TGI with SNB-19 CNS, in the assay on M14 melanoma, in the assay with IGROV1 ovarian, in the assay with SF-268 CNS, in the assay on OVCAR-3 ovarian and in the assay with CCRF-CEM leukemia was greater than 100 µM each time. Moreover, the TGI in the assay on A498 renal and in the assay with UO-31 renal was greater than 100 µM throughout.

On to `CCCCN(CCCC)C1(c2cc3ccccc3s2)CCCCC1`, for which the TGI in the assay with SNB-19 CNS is 33.8 µM; in the assay with M14 melanoma, 30.6 µM; in the assay on IGROV1 ovarian, 31.2 µM; with SF-268 CNS it was 34 µM; in the assay with OVCAR-3 ovarian it was 29.9 µM; in the assay on CCRF-CEM leukemia, 28.7 µM. Moreover, the TGI in the assay on A498 renal turned out to be 34.1 µM; in the assay on UO-31 renal it was 32.9 µM.

Take `CN(NC(=O)c1ccc(Cl)cc1)C1=NCCCCN1`: the TGI in the assay with SNB-19 CNS, in the assay with M14 melanoma, with IGROV1 ovarian, with SF-268 CNS, in the assay with OVCAR-3 ovarian and in the assay with CCRF-CEM leukemia was greater than 100 µM in each case. Besides, the TGI in the assay with A498 renal and in the assay with UO-31 renal was greater than 100 µM each time.

As to `Brc1ccc(N=C/C=C(\Nc2ccc(Br)cc2)C23CC4CC(CC(C4)C2)C3)cc1`, the TGI in the assay on SNB-19 CNS was greater than 100 µM; in the assay with M14 melanoma, 71 µM; in the assay with IGROV1 ovarian it was 28 µM; with SF-268 CNS it was 37.9 µM; in the assay with OVCAR-3 ovarian, 28.9 µM; in the assay on CCRF-CEM leukemia it was 4.5 µM. The TGI worked out at 79.7 µM with A498 renal and 34.6 µM with UO-31 renal.

For `O=C(Nn1c(-c2ccccc2)nc2ccccc2c1=O)c1ccc([N+](=O)[O-])cc1`, the TGI with SNB-19 CNS, with M14 melanoma, with IGROV1 ovarian, in the assay on SF-268 CNS, in the assay with OVCAR-3 ovarian and in the assay on CCRF-CEM leukemia was greater than 100 µM in each case. Also, the TGI in the assay with A498 renal and in the assay with UO-31 renal was greater than 100 µM each time.

Regarding `CCOC(=O)c1sc2c(c1OC(=O)c1ccc(Cl)cc1Cl)c(=O)n(-c1ccccc1)c(=S)n2-c1ccccc1`, the TGI was greater than 100 µM in the assay on SNB-19 CNS; greater than 100 µM in the assay on M14 melanoma; greater than 40.9 µM with IGROV1 ovarian; greater than 100 µM in the assay on SF-268 CNS; greater than 100 µM in the assay on OVCAR-3 ovarian; greater than 100 µM in the assay on CCRF-CEM leukemia. Further, the figures for the TGI with A498 renal and with UO-31 renal were 46.1 µM and greater than 100 µM, respectively.

As to `C/C(=N/NC(=S)Nc1ccccc1C)c1ccccn1`, the TGI in the assay with SNB-19 CNS was found to be 54.8 µM; in the assay with M14 melanoma it was 5.7 µM; in the assay on IGROV1 ovarian it was 12.1 µM; with SF-268 CNS, 30.9 µM; with OVCAR-3 ovarian it was 9.47 µM; in the assay with CCRF-CEM leukemia it was 14.4 µM. For the same compound, the results for the TGI with A498 renal and with UO-31 renal were 12.3 µM and 15.6 µM, respectively.

As for `CC(=O)OCC(OC(C)=O)C(OC(C)=O)C(/C=N\Nc1nc2ccccc2c(=O)[nH]1)OC(C)=O` (stereo not drawn), the TGI in the assay with SNB-19 CNS, in the assay with M14 melanoma, with IGROV1 ovarian, in the assay on SF-268 CNS, with OVCAR-3 ovarian and with CCRF-CEM leukemia was greater than 100 µM each time. Also, the TGI in the assay with A498 renal and with UO-31 renal was greater than 100 µM in each case.

On to `COc1cc(S(=O)(=O)Nc2ccc(-c3csc(/N=C\c4ccccc4O)n3)cc2)ccc1Cl`, for which the TGI in the assay with SNB-19 CNS, in the assay with M14 melanoma, in the assay with IGROV1 ovarian, in the assay with SF-268 CNS, in the assay with OVCAR-3 ovarian and with CCRF-CEM leukemia was greater than 100 µM in each case. Besides, the TGI in the assay with A498 renal and in the assay on UO-31 renal was greater than 100 µM throughout.

Turning to `CCN(CC)CCC1CCCCN1CC(=O)N1c2ccccc2NC(=O)CC1C` (stereo not drawn), the TGI with SNB-19 CNS, with M14 melanoma, in the assay with IGROV1 ovarian, in the assay with SF-268 CNS, in the assay with OVCAR-3 ovarian and in the assay with CCRF-CEM leukemia was greater than 100 µM in each case. Moreover, the TGI in the assay with A498 renal and with UO-31 renal was greater than 100 µM in each case.

Take `COc1ccc(-c2nc(SCC(=O)N/N=C/c3ccc([N+](=O)[O-])cc3)[nH]c2-c2ccc(OC)cc2)cc1`: the TGI with SNB-19 CNS is greater than 100 µM; with M14 melanoma, 32.3 µM; in the assay with IGROV1 ovarian it was 74.8 µM; in the assay on SF-268 CNS, greater than 100 µM; with OVCAR-3 ovarian, greater than 64.5 µM; in the assay on CCRF-CEM leukemia, greater than 22.1 µM. Further, the TGI is 55.4 µM with A498 renal and greater than 100 µM in the assay on UO-31 renal.

For the compound `Brc1ccc2[nH]cc([C@@H]3CN[C@@H](c4c[nH]c5ccc(Br)cc45)CN3)c2c1`, the TGI in the assay on SNB-19 CNS stood at 24.3 µM; in the assay with M14 melanoma, 15 µM; in the assay with IGROV1 ovarian, 16.6 µM; in the assay on SF-268 CNS, 27.8 µM; with OVCAR-3 ovarian, 18.4 µM; with CCRF-CEM leukemia, 5.41 µM. Moreover, the TGI amounted to 28.7 µM in the assay on A498 renal and 9.47 µM with UO-31 renal.

With `Cc1cc(C)c2c(=O)cc(-c3ccccc3)[nH]c2c1`, the TGI in the assay on SNB-19 CNS was greater than 100 µM; in the assay on M14 melanoma, greater than 82.4 µM; in the assay on IGROV1 ovarian, 35.4 µM; in the assay on SF-268 CNS, 46.7 µM; in the assay with OVCAR-3 ovarian, 25.6 µM; in the assay with CCRF-CEM leukemia, greater than 100 µM. Also, the TGI in the assay with A498 renal was determined as 10.5 µM; in the assay on UO-31 renal, 27.8 µM.

In the case of `CNC(=S)N/N=C(\C)c1cc(OC)c(OC)cc1O`, the TGI in the assay with SNB-19 CNS, in the assay on M14 melanoma, with IGROV1 ovarian, in the assay on SF-268 CNS, in the assay on OVCAR-3 ovarian and in the assay on CCRF-CEM leukemia was greater than 100 µM throughout. In addition, the TGI with A498 renal and in the assay with UO-31 renal was greater than 100 µM in each case.

As to `COc1ccc(NS(=O)(=O)c2ccc3ncn(NS(=O)(=O)c4ccc(I)cc4)c(=O)c3c2)cc1`, the TGI in the assay with SNB-19 CNS, with M14 melanoma, in the assay with IGROV1 ovarian, in the assay with SF-268 CNS, in the assay on OVCAR-3 ovarian and in the assay with CCRF-CEM leukemia was greater than 100 µM throughout. The TGI with A498 renal and in the assay with UO-31 renal was greater than 100 µM in each case.

Consider `CC(=O)OC12c3ccccc3C(c3ccccc31)C1C(=O)N(Nc3ccccc3)C(=O)C12` (stereo not drawn), for which the TGI with SNB-19 CNS, in the assay with M14 melanoma, in the assay on IGROV1 ovarian, in the assay on SF-268 CNS, with OVCAR-3 ovarian and in the assay with CCRF-CEM leukemia was greater than 100 µM in each case. Also, the TGI with A498 renal and in the assay with UO-31 renal was greater than 100 µM in each case.
